# According to US11229622B2, “Cosmetological and pharmaceutical composition based on combinatorial quercetin derivative” (priority 2017, dated 2022):
# Columns and labels:
# [1] = system: carrageenan edema of the foot; conditions: from references [14, 16]; cited from earlier work
# [2] = Biological activity of fully substituted quercetins (test not specified)
# SBP of white rats = test: Antihypertensive effect in normotensive white rats; format: in vivo; conditions: for Antihypertensive effect, %: intravenous, after 3 hours, Octadine 6.2 mg/kg, Greenflo 5.0 mg/kg (as thick chlorophyllipt extract), 0.025 mmol/kg
# Experimental: The antihypertensive effect of the drugs was evaluated after 3 hours of observation. Digital data table.
# For an objective comparison of the activity of the studied substances, ED30 was experimentally established (a unit of action that causes a decrease in SBP by 30%) for each drug. For this purpose, the value of the hypotensive effect of various doses of substances in three groups of five white rats was determined in experiment, the arithmetic mean of the obtained series and their standard errors were calculated. Then, digital data was plotted and ED30 was calculated.
# An indicator of the true hypotensive effect of a new chemical is its ability to lower pathologically elevated SBP. To solve this problem, 5 adult white rats with spontaneous hypertension (weight 260-280 g) were used, in which, before the experiment, the level of SBP averaged 180±1.7 mm Hg. For comparison, an experiment was conducted on 5 white rats with normal SBP. 17.
# [3] = system: systemic blood pressure of rabbits; test: Antihypertensive effect in rabbits; format: in vivo; conditions: intravenous, 3 hours, Octadine 15.0 mg/kg (0.06 mmol/kg), Greenflo 10.0 mg/kg (0.05 mmol/kg)
# [4] = system: systemic blood pressure of cats; test: Antihypertensive effect in cats; format: in vivo; conditions: 3 hours, Octadine 20.0 mg/kg (0.08 mmol/kg), Greenflo 10.0 mg/kg (0.05 mmol/kg)
compound,measurement,setting,value
"O=C(O)Cc1ccccc1Nc1c(Cl)cccc1Cl [DN, sodium diclofenac]","ED 50, mg/kg",[1],"8.0 [14, 16] mg/kg"
"O=C(O)CCC(=O)Oc1cc(OC(=O)CCC(=O)O)c2c(=O)c(OC(=O)CCC(=O)O)c(-c3ccc(OC(=O)CCC(=O)O)c(OC(=O)CCC(=O)O)c3)oc2c1 [Fully succinylated quercetin, pentasuccinyl quercetin]",biological activity,[2],did not exhibit biological activity
N=C(N)NCCN1CCCCCCC1 [Octadine],"The effect, % (hypotensive)",SBP of white rats; dose 5.0 mg/kg,18.0 ± 2.7%
same,"The effect, % (hypotensive)",SBP of white rats; dose 10.0 mg/kg,26.0 ± 1.5%
same,"The effect, % (hypotensive)",SBP of white rats; dose 20.0 mg/kg,33.0 ± 4.9%
same,"Antihypertensive effect, %",SBP of white rats,19.7 ± 2.2%
same,"Antihypertensive effect, %",SBP of white rats; listed as octadine,19.7±2.2%
same,"Antihypertensive effect, %",[3],32.0 ± 6.1%
same,"Antihypertensive effect, %",[4],35.0 ± 9.9%
